Measurements taken from patent publication US5510501A, “Saintopin derivatives” (Kyowa Hakko Kogyo, Co. Ltd., priority 1992, dated 1996).
Converted amounts (≈) assume the structure as drawn.

Key:
BALB 3T3/H-ras cells = assay: Growth inhibition against BALB 3T3/H-ras cells; assay type: cell-based; conditions: Mus musculus, 72 hours, Neutral Red
Solubility = assay type: physicochemical
HeLaS3 cells = assay: Anti-tumor activity against HeLaS3 cells (Neutral Red growth inhibition); assay type: cell-based; conditions: Homo sapiens, HeLa S3, 72 hours
Experimental: HeLaS3 cells (ATCC HTB22) were suspended in a medium comprising 10% fetal calf serum, 2 mM glutamine and MEM medium (produced by Nippon Pharmaceutical Co., Ltd.) (hereinafter referred to as medium A) to a concentration of 3×10^4 cells/ml. The cell suspension was put into wells of a 96-well microtiter plate in an amount of 0.1 ml per well. The cells in the plate were cultured at 37° C. for 20 hours in a CO2 -incubator. Subsequently, the test compound appropriately diluted with medium A was added to the wells in an amount of 0.1 ml/well. The cells were further cultured at 37° C. for 72 hours in the CO2 -incubator, and then the culture supernatant was removed. To the residue was added a medium comprising medium A and 0.02% Neutral Red in an amount of 0.1 ml per well, followed by culturing at 37° C. for one hour in the CO2 -incubator, whereby the cells were stained. After removal of the culture supernatant, the residue was washed once with physiological saline. The pigment was extracted with 0.001N hydrochloric acid/30% ethanol, and the absorbance at 550 nm was measured by using a microplate reader. The concentration of the test compound at which the growth of the cells is inhibited by 50% (IC50) was calculated by comparing the absorbance of untreated cells with those of the cells treated with the test compound at known concentrations.

[1] = test system: Staphylococcus aureus ATCC 6538P; assay: Antibacterial activity, MIC by agar dilution method; assay type: cell-based; conditions: ATCC6538P, pH 7
Experimental: (§1) The antibacterial activity was determined by the agar dilution method using a medium (pH 7) which comprises 3 g/l Bacto-Tryptone (produced by Difco Laboratories), 3 g/l meat extract, 1 g/l yeast extract, 1 g/l glucose and 16 g/l agar.

[2] = test system: Enterococcus faecium ATCC 10541; assay: as above; assay type: cell-based; conditions: ATCC10541, pH 7
Experimental: as §1

Row | Solubility (Solubility; acetone) | Solubility (Solubility; chloroform) | Solubility (Solubility; dimethyl sulfoxide (DMSO)) | Solubility (Solubility; ethyl acetate) | Solubility (Solubility; methanol) | Solubility (Solubility; n-hexane) | Solubility (Solubility; water) | Solubility (Solubility; ethanol) | IC50 (HeLaS3 cells) [µM] | MIC [1] [µg/mL] | MIC [2] [µg/mL] | SMILES | IC50 (BALB 3T3/H-ras cells) [µM]
1 | Readily soluble | soluble | Readily soluble | soluble | Readily soluble | sparingly soluble | sparingly soluble | – | – | – | – | CC(=O)c1c(O)cc2cc3c(c(O)c2c1O)C(=O)c1c(O)cc(O)cc1C3=O [Saintopin E] | 2.4
2 | – | – | – | – | – | – | sparingly soluble | – | – | – | – | O=C1c2cc(O)cc(O)c2C(=O)c2c1cc1cc(O)cc(O)c1c2O [UCT 1003, reference compound] | –
3 | – | – | – | – | Soluble | sparingly soluble | Soluble | Soluble | 6.1 | 0.52 (≈ 1.24 µM) | 0.52 (≈ 1.24 µM) | O=C1c2cc(O)cc(O)c2C(=O)c2c1cc1cc(O)cc(OS(=O)(=O)O)c1c2O [UCE 1022] | –
